Structure (SMILES)	melting point
N#CCC1CCN(c2ccc(N3C[C@H](CO)OC3=O)cc2)CC1	110 to 112 °C
CCCCCCCCCCCCCCCCCCCCCCOC(=O)C(C)O (stereo not drawn)	57 °C
N#Cc1ccc(N2C(=O)N(CCF)C(CF)(CF)C2=O)cc1C(F)(F)F	136 to 137 °C
c1ccc(-c2csc(CN3CCN(c4ccccc4)CC3)n2)cc1	142 to 143 °C
COC(=O)C(CCSC)NC(=O)c1ccc(CS(=O)(=O)c2cccnc2)cc1-c1ccccc1 (stereo not drawn)	152 to 154 °C
CCCC/C(=C\C(=O)O)c1cnc(CCCC)n1Cc1ccccc1Cl	131 to 132 °C
Cc1ccc(S(=O)C(C(=O)OC(C)(C)C)C(O)CC(OC2CCCCO2)c2ccc(Oc3ccccc3)cc2)cc1 (stereo not drawn)	140 to 145 °C
CN1Cc2c(I)ncn2-c2ccc(F)cc2C1=O	187 to 188 °C
COC1=C(OC)C(=O)C(CCCCCCCCCCCCCCCCCCCCCCO)=C(C)C1=O	89 to 90.5 °C
O=C(O)[C@@H]1C[C@H]1/C=C\c1ccc(-c2nc3ccccc3o2)cc1 (relative stereo)	171 to 172 °C
O=C(N[C@H](Cc1ccc(Oc2ccccc2)cc1)[C@@H](O)c1ccc(F)cc1)c1ccc(F)c2ccccc12 (racemic)	104 to 105 °C
CCOC(=O)C(C)c1csc(=Nc2ccccc2)n1C (stereo not drawn)	80 to 81 °C
C=CC(O)C(NC=O)C(=O)OCC (stereo not drawn)	50 to 51 °C
Cc1ccn2ncc(C(=O)Nc3cc(Cl)ccc3OC3CCC(O)CC3)c2n1 (stereo not drawn)	179 to 182 °C
CC(C)Oc1c(C2=CC(C)(C)Oc3ccc(C#N)cc32)c(=O)c1=O	169 to 170 °C
CC(C)OC(=O)Nc1ccc(NC=O)c([N+](=O)[O-])c1	168 to 170 °C
CNC(=O)ON=C1N=C(C)C(C)(C)S1	123 to 125 °C
CCOCCCNC(=O)c1ccc(S(=O)(=O)NC(=O)c2ccc(C(=O)NCC(=O)O)nc2)cc1	109 °C
COC(=O)c1nc(N=[N+]=[N-])ccc1OCc1ccccc1	88 to 89 °C
CN(C1CCN(Cc2cnc3ccccc3c2)CC1)S(=O)(=O)c1ccc(Nc2nccc(Nc3ccc(F)cc3)n2)cc1	125 to 127 °C
CCN(C(=O)c1ccccc1C(=O)c1ccc(Cl)cc1)[C@@H]1CCCC[C@@H]1NS(=O)(=O)c1ccc(C)cc1 (relative stereo)	178 to 180 °C

Structure (SMILES)	melting point
O=S(=O)(CCCCl)Nc1cccc(Oc2cccc3cccnc23)c1	138 to 140 °C
O=C1NC(=O)c2cc(Nc3ccc(OCc4ccccc4)cc3)c(Nc3ccc(OCc4ccccc4)cc3)cc21	187 to 189 °C
O=C1c2ccccc2C(=O)N1CCCCOc1ccc(-c2ccncn2)cc1	100 to 102 °C
CC(C=O)C1CCC2C3CCC4CCCCC4(C)C3CCC12C (stereo not drawn)	248 to 252 °C
O=C(Nc1ccc2cc(CN3CCCC3)cnc2c1F)c1ccc(-c2ccccc2)cc1F	136 to 137 °C
C[Si](C)(C)C#Cc1ccc([N+](=O)[O-])cc1	95 to 100 °C
C=CC/C=C(\C(=O)O)c1cc(OC)c(O)c2c(Cc3ccccc3)cccc12	156 to 158 °C
OC(c1cccc(-c2nnc(Nc3ccc(Cl)c(Cl)c3)s2)c1)c1cccc(C(F)(F)F)c1 (stereo not drawn)	191 to 192 °C
CC(C)(C)OC(=O)N[C@@H](Cc1ccccc1)[C@H](O)CNC1(c2cccc(C(F)(F)F)c2)CC1	124 °C
COc1cc2c(cc1OC)CC(O)(CC(=O)O)CC2 (stereo not drawn)	100 to 102 °C
COC(=O)c1ccc2cc(S)ccc2c1	150 to 151 °C
CC(NCCN(CCNC(C)=C1C(=O)CC(C)(C)CC1=O)C(=O)CCC(=O)O)=C1C(=O)CC(C)(C)CC1=O	65 to 68 °C
COC(=O)c1ccc(Cn2c(C)cn(C3CCc4ccccc4C3)c2=S)cc1 (stereo not drawn)	140 to 141 °C
O=c1cc[nH]c2cn[nH]c12	> 320 °C
CCOC(=O)c1ccc(CCN(C)CCCC(C#N)(C(=O)OC)c2ccc(OC)c(OC)c2)cc1 (stereo not drawn)	88 to 89 °C
CCCCOc1nc(N)c2[nH]c(=O)n(CCNc3cccc(CC(=O)OC)c3)c2n1	222 to 223 °C
COc1ccc(C[C@@H](C(=O)[C@H](Cc2ccc(OC)c(OC)c2)N2C(=O)c3ccccc3C2=O)N2C(=O)c3ccccc3C2=O)cc1OC	126 to 128 °C
NS(=O)(=O)c1cc2cc(O)c(O)cc2s1	233 to 235 °C
Brc1ccc(N2CCOCC2)cc1	118 to 120 °C
CCOC(=O)C(C)Oc1ccc(-c2nc(-c3ccc(C)cc3C)nc(-c3ccc(C)cc3C)n2)c(O)c1 (stereo not drawn)	120 to 122 °C
Clc1ccc2oc(CBr)cc2c1	70 °C

Structure (SMILES)	melting point
CC(C)(C)c1ccc(C(=O)Nc2cn3c4c(ccc3n2)OCC4)cc1	266 to 268 °C
COC(=O)c1ccc(C(=O)N(C)c2ccccc2)cc1	78 to 80 °C
OCCC1(c2ccc(Cl)c(Cl)c2)CCCNC1 (stereo not drawn)	122 °C
C=Cn1cc(C(=O)O)c(=O)c2cc(F)c(N3CCC(NC)C3)nc21 (stereo not drawn)	160 to 161 °C
CC(C)CCOc1c(-c2ccc(S(N)(=O)=O)cc2)cnn(CC(F)(F)F)c1=O	123 to 124 °C
CCc1cc(COc2nn(Cc3ccccc3)cc2C(=O)O)ccc1OCc1nc(-c2ccco2)oc1C	173 to 174 °C
Nc1ncc2ncnc(Nc3ccc(F)c(Cl)c3)c2n1	300 to 301 °C
CCCCN(C(=O)C(C)C)c1nnc(C)s1	54 to 57 °C
CCOC(=O)C(C)(C)Oc1ccc(-c2ccc(CCNC(=O)c3cccc(C)c3)cc2)cc1	< 20 °C
CCOC(=O)c1cc(O)c2cc3c(O)cc(C(=O)OCC)nc3c(N(CC)CC)c2n1	267 to 268 °C
Cc1ccc(S(=O)(=O)NCC(C)NS(=O)(=O)c2ccc(C)cc2)cc1 (stereo not drawn)	105 to 107 °C
CCCn1c(=O)c2c(nc(/C=C/c3cc(OC)c(OC)c(OC)c3)n2C)n(CCC)c1=O	168 to 169 °C
COC1=CC2=CCC3C(=CCC4(C)C(=O)C(C)CC34)C2(C)CC1 (stereo not drawn)	124 to 129 °C
O=c1[nH]nc(-c2sc3ccccc3c2Cl)o1	218 to 220 °C
CCOC(=O)C1CCN(c2ccc([N+](=O)[O-])c(C=C3NC(=O)NC3=O)c2)CC1	221 to 223 °C
C[C@@H](n1cnc2cc(NCc3ccccc3)ccc2c1=O)[C@](O)(Cn1cncn1)c1ccc(F)cc1F	100 to 107 °C
O=C1CNc2ncc(I)cc2N1Cc1cc(F)c(F)cc1F	227 to 228 °C
CC1(C)Oc2c(c(=O)n(Cc3ccccc3)c3ccccc23)[C@@H](N2CCCC2=O)[C@@H]1O (relative stereo)	> 260 °C
Cc1cc(C)c2nc(C3CC3)n(-c3ccc(C(C(=O)O)C4CCCC4)cc3)c2n1 (stereo not drawn)	180 °C
COC(=O)c1ccccc1-n1c(CCl)nc2ccc(Br)cc2c1=O	235 to 237 °C
CCOCc1nc2c(N)nc(C)c(C)c2n1CCCNC(=O)C(C)C	179 to 180 °C

Other lines, results leading:

melting point	Structure (SMILES)
111 to 113 °C	O=C1N(CCCC2CC2)c2ccccc2C12COc1cc3c(cc12)OCO3 (stereo not drawn)
92 to 93 °C	CNC(=O)c1cccc(NC(=O)Cc2ccc3c(c2)CC(C)(C)O3)c1
150 to 151 °C	Cc1c(C)c2c(c(Br)c1NC(=O)CC(C)(C)C)C(c1ccc(C(C)C)cc1)CO2 (stereo not drawn)
207 to 208 °C	Nc1nc(-c2ccc(Cl)cc2)c(CCO)c2ncnn12
194 to 195 °C	CC(=O)ON=C(O)c1cc(C(O)=NCCO)c(C(=O)O)cc1C(=O)O
193 to 195 °C	O=C1OC(Cc2ccccc2)=NC1=Cc1cccs1
124 to 126 °C	CCCN1C(=O)N2CC(CC)N=C2c2c1ncn2C (stereo not drawn)
130 to 132 °C	COc1ccc(-c2nnc(Cl)nc2-c2ccc(OC)cc2)cc1
100 to 102 °C	COC(=O)c1ccc(CNC(C)=O)c([N+](=O)[O-])c1
128 to 130 °C	CCOC(=O)C(=CNc1ccc2nc(C)n(C)c2n1)C(=O)OCC
137 to 138 °C	NC(=O)CCNc1cc(Oc2ccc(C(F)(F)F)cc2Cl)ccc1[N+](=O)[O-]
115 to 116 °C	CC(C)(C(=O)OCc1ccccc1)N1COC(CO)=C(c2ccccc2)C1=O
80 to 80.5 °C	CC(C)(C)SSc1nc2ccccc2s1
111 to 112 °C	Cc1c(Br)c2c(c(C)c1NC(=O)OC(C)(C)C)C(N(C)C)C(C)(C)O2 (stereo not drawn)
99 to 101 °C	Cc1ccc(S(=O)(=O)N2CCC[C@H]2C(=O)N[C@@H](Cc2ccc(OCCN3CCOCC3)cc2)C(=O)O)cc1
101 to 103 °C	O=C1CCC(c2ccc(-c3ccccc3Cl)o2)O1 (stereo not drawn)
116 to 126 °C	CC1(C)Oc2ccc(-c3nnnn3CCCC(=O)O)cc2[C@@H](Oc2ccc(O)nn2)[C@]1(C)O
273 to 275 °C	CCOC(=O)CC[C@H](NC(=O)c1ccc(C(=Cc2cnc3nc(NC(=O)C(C)(C)C)nc(O)c3c2)COC2CCCCO2)cc1)C(=O)OCC (stereo partly drawn)

melting point	Structure (SMILES)
241 °C	N#Cc1ccc(-c2nc(=O)c3ccccc3s2)cc1
178 to 179 °C	Cc1cc(C)cc(C(=O)c2c(C(C)C)c(=O)[nH]c(=O)n2C/C=C/CCl)c1
111 °C	CCOC(=O)C1=C(CC)N(CCOC(=O)c2ccccc2)C(=O)NC1c1ccccc1 (stereo not drawn)
233 °C	Nc1ccc(-c2noc(-c3cnn4c(C(F)(F)F)cc(-c5ccc(C(F)(F)F)c(F)c5)nc34)n2)cn1
197 to 198 °C	COCCNS(=O)(=O)c1cccc(Nc2nccc(-c3sc(C)nc3C)n2)c1
117 to 121 °C	CCOC(CNc1nc2ccccc2[nH]1)OCC
57 to 60 °C	CCOC(=O)c1ccc(OCCOC)c(OC)c1
179 to 180 °C	CCOC(=O)C(C=O)c1csc(NC=O)n1 (stereo not drawn)
248 to 250 °C	CCCOc1ccc(S(=O)(=O)N2CCN(CC)CC2)cc1-c1nc2cc(N)c([N+](=O)[O-])cc2c(=O)[nH]1
155 to 157 °C	COC(=O)Cc1ccc2nc(Nc3ccccc3)oc2c1
102 to 105 °C	NC(=O)c1ccccc1OCC1CC1
220 to 221 °C	Nc1c(Br)cc2c(c1Br)CCC2
124 °C	CCOc1nc(Cl)nc(N(C)C)n1
73 to 74 °C	Cc1ccc(C(=O)OC2CCN(Cc3ccccc3)CC2)cc1
149 to 151 °C	Cc1cccc2c1nc(COc1ccc(Cl)cc1)n2CCC(C)C(=O)O (stereo not drawn)
255 °C	N#CC(C(=O)C(=O)C(C#N)c1ccc(Cl)cc1)c1ccc(Cl)cc1 (stereo not drawn)
120 to 122 °C	O[C@@H]1CNC[C@H]1Oc1ccccc1 (relative stereo)

From a melting point compilation (Tetko et al.; mined from patent text by program, amines drawn as free bases though some values may be those of a salt)
